# Reference: patent publication US7998965B2, “Glutamate aggrecanase inhibitors” (Wyeth LLC, priority 2005, dated 2011)
# Tests used:
# MMP-1 = target: T1, MMP-1 (Homo sapiens, UniProt P03956); test: MMP-1 of Table 1; format: biochemical; conditions: unit inferred
# T1 sequence (P03956 100-469): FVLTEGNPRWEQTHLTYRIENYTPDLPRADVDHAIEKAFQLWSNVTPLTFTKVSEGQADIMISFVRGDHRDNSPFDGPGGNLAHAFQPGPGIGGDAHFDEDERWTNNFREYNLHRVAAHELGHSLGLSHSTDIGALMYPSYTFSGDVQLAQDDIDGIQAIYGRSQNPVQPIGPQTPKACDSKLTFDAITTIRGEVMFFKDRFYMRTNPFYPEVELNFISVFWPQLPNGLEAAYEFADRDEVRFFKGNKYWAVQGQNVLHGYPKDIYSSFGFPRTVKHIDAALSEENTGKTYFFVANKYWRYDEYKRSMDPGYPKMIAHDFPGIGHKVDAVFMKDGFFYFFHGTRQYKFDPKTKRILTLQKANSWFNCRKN
# [1] = target: T2, recombinant human catalytic domain of MMP-13 (Homo sapiens, UniProt P45452); test: In vitro fluorescence assay of MMP-13 activity; format: biochemical; conditions: Table 1; unit inferred
# T2 construct: catalytic domain of MMP-13 (165 amino acids, residues 104-268, 19 kDa)
# [2] = target: T3, purified recombinant human Aggrecanase-1 (rAgg1) (Homo sapiens, UniProt O75173); test: In vitro fluorescence screen for Aggrecanase-1 inhibitors; format: biochemical; conditions: Table 1
# T3 sequence (O75173 213-837): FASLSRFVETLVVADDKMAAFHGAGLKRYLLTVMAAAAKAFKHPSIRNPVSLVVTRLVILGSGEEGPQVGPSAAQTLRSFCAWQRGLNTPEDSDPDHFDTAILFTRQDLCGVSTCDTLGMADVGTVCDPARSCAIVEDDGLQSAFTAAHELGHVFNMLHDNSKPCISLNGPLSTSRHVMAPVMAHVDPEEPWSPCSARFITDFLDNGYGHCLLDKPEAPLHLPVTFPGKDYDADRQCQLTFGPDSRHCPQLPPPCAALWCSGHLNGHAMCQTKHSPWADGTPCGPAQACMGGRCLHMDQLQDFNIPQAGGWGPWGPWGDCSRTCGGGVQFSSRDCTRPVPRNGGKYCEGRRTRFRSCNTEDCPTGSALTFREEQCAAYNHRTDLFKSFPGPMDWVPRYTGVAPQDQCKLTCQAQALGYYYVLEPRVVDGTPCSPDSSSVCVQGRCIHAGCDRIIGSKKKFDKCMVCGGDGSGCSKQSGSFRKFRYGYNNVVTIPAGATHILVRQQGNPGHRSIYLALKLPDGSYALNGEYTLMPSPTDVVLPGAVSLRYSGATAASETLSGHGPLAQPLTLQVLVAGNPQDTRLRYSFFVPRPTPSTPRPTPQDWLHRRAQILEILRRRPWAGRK
# [3] = test system: bovine articular cartilage treated with Interleukin 1 alpha (IL-1α); test: Bovine articular cartilage explant cultures: inhibition of degradation of proteoglycan; format: cell-based; conditions: inhibitory effect expressed as percentage, concentration not printed
# Summary of the method: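 Bovine metacarpal cartilage discs (6 mm), equilibrated in serum-free DMEM-based medium, were treated with 5 ng/ml IL-1 plus compound (working solutions 0.1-10 μg/ml), with medium collected and replaced on days 1, 2 and 3. Released proteoglycan was measured by DMMB absorbance at 520 nm against chondroitin sulphate standards, expressed as μg per mg cartilage, and inhibition given as percentage.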
# recombinant human MMP-2 = target: T4, recombinant human MMP-2 (Homo sapiens, UniProt P08253); test: In vitro fluorescence assay of MMP-2 activity
# T4 sequence (P08253 110-660): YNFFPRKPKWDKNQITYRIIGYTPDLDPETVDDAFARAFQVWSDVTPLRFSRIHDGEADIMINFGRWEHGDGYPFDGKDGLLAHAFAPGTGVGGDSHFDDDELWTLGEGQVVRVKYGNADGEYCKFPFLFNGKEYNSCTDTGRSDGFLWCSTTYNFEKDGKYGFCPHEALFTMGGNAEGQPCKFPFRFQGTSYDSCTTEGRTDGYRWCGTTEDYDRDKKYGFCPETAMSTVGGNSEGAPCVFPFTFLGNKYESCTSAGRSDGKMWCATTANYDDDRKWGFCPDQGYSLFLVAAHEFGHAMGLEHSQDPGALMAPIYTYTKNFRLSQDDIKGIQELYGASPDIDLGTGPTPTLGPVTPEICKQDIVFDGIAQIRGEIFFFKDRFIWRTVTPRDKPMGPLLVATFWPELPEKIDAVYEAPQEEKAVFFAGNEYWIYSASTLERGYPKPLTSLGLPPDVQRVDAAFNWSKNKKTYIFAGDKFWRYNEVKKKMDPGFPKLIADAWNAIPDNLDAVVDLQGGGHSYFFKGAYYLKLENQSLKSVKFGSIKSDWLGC
# [4] = target: T5, recombinant human catalytic domain of MMP-14 (Homo sapiens, UniProt P50281); test: In vitro fluorescence assay of MMP-14 activity; format: biochemical; conditions: Table 1; unit inferred
# T5 construct: 177 amino acids corresponding to Tyr89-Gly265 of mature human enzyme; purchased Chemicon International, Inc. CC1041
smiles,measurement,setting,value
"CC(C)(Cc1ccc(F)cc1)NC(=O)[C@H](CCC(=O)O)NC(=O)c1ccc(-c2ccccc2)cc1 [Example 8OO, N^2-(1,1′-biphenyl-4-ylcarbonyl)-N^1-[2-(4-fluorophenyl)-1,1-dimethylethyl]-L-α-glutamine]",IC50,MMP-1,> 200 µM
same,IC50,[1],> 50 µM
same,Ki,"[2]; enzyme not given, column follows Agg1 IC50, read-out: Ki",0.006 µM
same,IC50,[2]; read-out: Agg1 IC50,< 0.03 µM
same,bovine,"[3]; Table 1, first of two columns headed bovine",87%
same,bovine,"[3]; Table 1, second of two columns headed bovine",40%
same,IC50,recombinant human MMP-2,> 20 µM
same,IC50,[4],> 200 µM
